Measured values taken from patent US20080045495A1, “Treatment of Patients with Cystic Disease by Alteration of Fibrocystin Proteolysis” (BOARD OF REGENTS, THE UNIVERSITY OF TEXAS SYSTEM, priority 2006, published 2008).

Assays:
[1] = system: fibrocystin cleavage in HEK-293 cells; assay: Luciferase reporter assay of fibrocystin cleavage (pFC-GV / pG5-luc) in HEK-293 cells; assay type: cell-based, human; details: 5 mM caffeine versus vehicle, HEK-293, 12 hours, FIG. 4D
Method: (§1) Reporter Gene Assays—mIMCD-3 cells, HEK-293 cells, or HeLa cells were plated in 6-well dishes (3×10^5 cells/well) and cotransfected with 0.05 μg phRL-TK(Int−) encoding Renilla luciferase (Promega, Madison, Wis.), 0.1 μg Photinus luciferase reporter plasmids, and 0.01-0.3 μg effector plasmids. Luciferase assays were performed as described previously (Hiesberger, 2004). Relative luciferase activity was calculated as the ratio of Photinus and Renilla luciferase.
(§2) FIG. 4 A is an image of a gel illustrating mIMCD3/FC cells were grown for 4 days and incubated with 0.1 μM thapsigargin (lane 2), 5 mM caffeine (lane 3), 75 μM dantrolene (lane 5), 200 μM ruthenium red (lane 7), or no additions (lanes 1, 4 and 6). After 2 hours, media were replaced with media lacking serum but containing the same supplements, and, in addition, 10 nM mifeprisone. Cell lysates were prepared after 24 hours and analyzed by immunoblotting using anti-V5 antibody. FIG. 4B is a graph of mIMCD-3 cells were transfected with 0.2 μg pG5-luc and either 0.2 μg pFC-GV or 0.2 μg pLDLR-GV. After 24 hours, cells were incubated in serum-free media in the presence or absence of 75 μM dantrolene. Relative luciferase activity was determined after 48 h. Data presented are mean ±SE of three separate transfections. The fibrocystin/Gal4-VP16 fusion protein is shown schematically below. Shaded box indicates the transmembrane segment; filled boxes indicate the N-terminal signal sequence and the C-terminal Gal4-VP16 fusion protein. FIG. 4C is an image of a gel illustrating HEK-293 cells transfected with 6 μg pFC-V5, and 8 hours later incubated in serum-free media containing 1-8 mM caffeine, 0.5 μM calphostin, or no additions. Cells were lysed after 16 h, and extracts were analyzed by immunoblotting using anti-V5 antibody. FIG. 4D is a graph of HEK-293 cells transfected with 0.2 μg pFC-GV and 0.2 μg pG5-luc. After 24 hours, cells were incubated in serum-free media containing 5 mM caffeine or no additions. Luciferase activity was measured after 12 hours. Data presented are mean ±SE of three separate transfections. FIG. 4E is an image of a gel illustrating HEK-293 cells stably expressing the m3 muscarinic receptor (lanes 1-4) and untransfected HEK-293 cells (lanes 5-8) were transfected with 6 μg pFC-V5. […] Cells were lysed after 16 hours, and extracts were analyzed by immunoblotting using anti-V5 antibody.
To quantitatively measure fibrocystin cleavage, a luciferase assay was developed that was similar to the ones employed to quantify the proteolytic cleavage of amyloid precursor protein (APP) and low density lipoprotein receptor related protein-1 (LRP1) (Cao, 2001; May, 2003). A plasmid (FC-GV) encoding the synthetic transcription factor Gal4-VP16 fused to the C-terminus of fibrocystin was generated. Proteolytic cleavage of the fibrocystin fusion protein releases Gal4-VP16, which translocates to the nucleus and activates a Gal4-responsive luciferase reporter gene (pG5-luc). Therefore, luciferase expression correlates with fibrocystin cleavage.
To quantify fibrocystin proteolysis in response to intracellular Ca^2+ release, the luciferase reporter assay was employed. HEK-293 cells were cotransfected with the plasmids pFC-GV and pG5-luc and incubated with either 5 mM caffeine or vehicle (as a control).
FIG. 5A is an image of a gel that illustrates HEK-293 cells were transfected with 6 μg pFC-V5.

[2] = system: fibrocystin cleavage in HEK-293(m3) cells
Method: as §2, with “FIG. 4C is an image of a gel illustrating HEK-293 cells transfected with 6 μg pFC-V5, and 8 hours later incubated in serum-free media containing 1-8 mM caffeine, 0.5 μM calphostin, or no additions.” left out, “FIG. 4D is a graph of HEK-293 cells transfected with 0.2 μg pFC-GV and 0.2 μg pG5-luc. After 24 hours, cells were incubated in serum-free media containing 5 mM caffeine or no additions.” left out, “hours.” for “hours. Data presented are mean ±SE of three separate transfections. FIG. 4E is an image of a gel illustrating HEK-293 cells stably expressing the m3 muscarinic receptor (lanes 1-4) and untransfected HEK-293 cells (lanes 5-8) were transfected with 6 μg pFC-V5.”

[3] = system: fibrocystin cleavage in HEK-293 cells; assay: Immunoblot (anti-V5) of fibrocystin proteolysis in HEK-293 cells transfected with pFC-V5; assay type: cell-based, human
Method: as §2
FIG. 5A is an image of a gel that illustrates HEK-293 cells were transfected with 6 μg pFC-V5. […] Fourteen hours later, cellular proteins were extracted and analyzed by immunoblotting using anti-V5 antibody. FIG. 5B is an image of a gel mIMCD3/FC cells were grown for 4 days, and expression of fibrocystin was induced by addition of 10 nM mifepristone. After 24 hours, media were supplemented with 0.1, 0.5, or 1 μM calphostin C. Thirty hours later, cells were harvested, and proteins were analyzed by immunoblotting using anti-V5 antibody. FIG. 5C is an image of a gel illustrating HEK-293 cells were transfected with 3 μg pFC-V5 and either 3 μg of the empty vector pEF-neo (lanes 1 and 3) or 3 μg pEF-PKCαA/E (lanes 2 and 4). After 12 hours media were changed to media containing 10% FCS (lanes 1 and 2) or 0.2% BSA (lanes 3 and 4). Forty-eight hours later, cells were harvested, and proteins were subjected to immunoblotting using anti-V5 antibody. FIG. 5D is a plot illustrating HEK-293 cells transfected with 0.2 μg pG5-luc and 0.2 μg pFC-GV, pLDLR-GV and/or pEF-PKCαA/E. After 16 hours, media were changed to serum-free media containing 100 nM PMA or 500 μM Br-cAMP. Twenty-four hours later, cells were harvested, and relative luciferase activities were determined. Data are the mean ±SE of three independent transfections.

[4] = system: fibrocystin cleavage in mIMCD3/FC cells; assay: Immunoblot (anti-V5) of fibrocystin proteolytic fragments in mIMCD3/FC cells; assay type: cell-based, human; details: FIG. 4A
Method: Cell Culture, Transfection and Generation of Stable Cell Lines—mIMCD-3 cells were plated at a density of 500,000 cells/100 mm dish, and 24 hours and 48 hours later the cells were transfected with 2 μg of pFC-V5 using Effectene (Qiagen, Valencia, Calif.). Cells were incubated for an additional 72 hours and lysed in 100 μl buffer containing Tris-buffered saline, 0.5% Triton X-100, protease inhibitor cocktail (Hoffmann-La Roche Inc., Indianapolis, Ind.). Twenty μl of the lysates were analyzed by SDS-PAGE, and immunoblot analysis was performed using HRP-conjugated anti-V5 as described previously (Hiesberger, 2005). mIMCD3/FC and mIMCD3/EGFP cell lines with inducible expression of fibrocystin and EGFP, respectively, were produced by transfecting mIMCD-3 cells with 1.5 μg pSwitch and either 1.5 μg pGeneFC or 1.5 μg pGeneEGFP. Stable transfectants were isolated after 14 days of growth in media containing hygromycin (350 μg/ml) and zeocin (300 μg/ml). To test for inducible expression, cells derived from individual clones were treated with mifepristone (10 nM) for 48 h or left untreated, and proteins were analyzed by immunoblotting using HRP-conjugated anti-FLAG. HEK-293 cells stably transfected with the muscarinic acetylcholine receptor M3 were a generous gift from Trevor Shuttleworth (University of Rochester Medical center) (Yang, 1995).
To further investigate the proteolytic cleavage of fibrocystin, mIMCD3/FC cells were generated, in which the expression of recombinant human fibrocystin can be induced by treatment with mifepristone.
FIG. 4 A is an image of a gel illustrating mIMCD3/FC cells were grown for 4 days and incubated with 0.1 μM thapsigargin (lane 2), 5 mM caffeine (lane 3), 75 μM dantrolene (lane 5), 200 μM ruthenium red (lane 7), or no additions (lanes 1, 4 and 6). After 2 hours, media were replaced with media lacking serum but containing the same supplements, and, in addition, 10 nM mifeprisone. Cell lysates were prepared after 24 hours and analyzed by immunoblotting using anti-V5 antibody. FIG. 4B is a graph of mIMCD-3 cells were transfected with 0.2 μg pG5-luc and either 0.2 μg pFC-GV or 0.2 μg pLDLR-GV. After 24 hours, cells were incubated in serum-free media in the presence or absence of 75 μM dantrolene. Relative luciferase activity was determined after 48 h. Data presented are mean ±SE of three separate transfections. The fibrocystin/Gal4-VP16 fusion protein is shown schematically below. […] Cells were lysed after 16 h, and extracts were analyzed by immunoblotting using anti-V5 antibody. […] Luciferase activity was measured after 12 hours. […] Cells were lysed after 16 hours, and extracts were analyzed by immunoblotting using anti-V5 antibody. […]

[5] = system: fibrocystin cleavage in mIMCD-3 cells; assay: Luciferase reporter assay of fibrocystin cleavage (pFC-GV / pG5-luc) in mIMCD-3 cells; assay type: cell-based, human; details: 75 μM dantrolene, serum-free media, luciferase after 48 h, FIG. 4B
Method: as §1
FIG. 4 A is an image of a gel illustrating mIMCD3/FC cells were grown for 4 days and incubated with 0.1 μM thapsigargin (lane 2), 5 mM caffeine (lane 3), 75 μM dantrolene (lane 5), 200 μM ruthenium red (lane 7), or no additions (lanes 1, 4 and 6). […] Cell lysates were prepared after 24 hours and analyzed by immunoblotting using anti-V5 antibody. […] Relative luciferase activity was determined after 48 h. […] Cells were lysed after 16 h, and extracts were analyzed by immunoblotting using anti-V5 antibody. […] Luciferase activity was measured after 12 hours. […] Cells were lysed after 16 hours, and extracts were analyzed by immunoblotting using anti-V5 antibody.
To quantitatively measure fibrocystin cleavage, a luciferase assay was developed that was similar to the ones employed to quantify the proteolytic cleavage of amyloid precursor protein (APP) and low density lipoprotein receptor related protein-1 (LRP1) (Cao, 2001; May, 2003). […]

Cn1c(=O)c2c(ncn2C)n(C)c1=O [caffeine]
increase of luciferase activity [1]: 10 fold | fibrocystin proteolysis [2]: triggered fibrocystin proteolysis | fibrocystin proteolysis ([3]; 5 mM caffeine, untransfected HEK-293 cells, 16 hours, FIG. 4E): triggered fibrocystin proteolysis | proteolysis of fibrocystin ([3]; 1-8 mM caffeine, serum-free media, HEK-293, lysed after 16 h, FIG. 4C): induced dose-dependent proteolysis | generation of FCA ([4]; pretreatment with 5 mM caffeine, lysates after 24 hours): prevented

O=C1CN(/N=C/c2ccc(-c3ccc([N+](=O)[O-])cc3)o2)C(O)=N1 [dantrolene]
increase in luciferase activity (FC-GV versus LDLR-GV) [5]: abolished | formation of FCA ([4]; 75 μM dantrolene): abolished

N.N.N.N.N.N.N.N.N.N.N.N.N.N.[Cl-].[Cl-].[Cl-].[Cl-].[Cl-].[Cl-].[O-2].[O-2].[Ru+3].[Ru+3].[Ru+4] [ruthenium red]
formation of FCA ([4]; pretreatment with 200 μM ruthenium red): abolished

C/C=C(/C)C(=O)O[C@H]1C(C)=C2[C@H]([C@@H]1OC(=O)CCCCCCC)[C@@](C)(OC(C)=O)C[C@H](OC(=O)CCC)[C@@]1(O)[C@H]2OC(=O)[C@@]1(C)O [thapsigargin]
generation of the FCA fragment ([4]; pretreatment with 0.1 μM thapsigargin, lysates after 24 hours): abolished
